According to patent US20090035345A1, “Nuclear Receptors Agonists for Treatment of Atherosclerosis and/or Related Cardiovascular Disease” (ACADEMISCH MEDISCH CENTRUM, BUREAU, priority 2005, published 2009):

Assays:
human SMCs [1] = test: Apoptosis of SMCs, Hoechst staining of nuclei; type: cell-based; conditions: human, 24 h
Method: (§1) Human SMCs were explanted from umbilical cord arteries. Cells were cultured in DMEM (Invitrogen Life Technology, Breda, The Netherlands) with 10% (v/v) fetal bovine serum (FBS) with penicillin and streptomycin (Invitrogen). Cells were used at passages five to seven. […] To determine cellular viability, cells were washed with PBS and subsequently incubated in medium in the presence of 0.5-mg/ml 3-(4,5-dimethylthiazol-2-yl)-2,5-diphenyltetrazolium bromide (MTT; Sigma Diagnostics, St. Louis). After two hours, medium was discarded, formazan crystals were dissolved in isopropanol and optical density was measured at 590 nm. Apoptosis was induced by incubating cells for 24 hours in medium with 0.25 μM staurosporine (Sigma). Subsequently, SMCs were fixed, stained with Hoechst dye and the relative number of apoptotic nuclei was determined.

[2] = system: SMα-actin, calponin and p27Kip1 protein; test: Western blotting of stretched venous SMCs; type: cell-based, human; conditions: 25 μM 6-MP
Method: Sodium dodecyl sulfate-polyacrylamide gel electrophoresis was performed with cell lysates (30 microg per lane) and concentrated culture media (equivalent of 200 microl per lane). Proteins were transferred to nitrocellulose-Protran (Schleicher and Schuell, 's-Hertogenbosch, The Netherlands).
Expression of p27^Kip1 (BD Biosciences, Alphen a/d Rijn, The Netherlands), p21^Cip1 (BD), SM alpha-actin (DAKO), PAI-1 (MAI-12; Biopool, Umea, Sweden), TR3 (M-210; Santa Cruz Biotechnology, Santa Cruz, Calif.), calponin (clone hCP; Sigma) and alpha-tubulin (Cedar Lane, Hornby, Ontario, Canada) was studied, using the indicated antibodies directed against these proteins. Primary antibodies were incubated overnight at 4° C. in 5% Protifar plus (Nutricia, Cuijk, The Netherlands) in TBS. As secondary antibodies, horseradish peroxidase-conjugated goat anti-rabbit (for p27^Kip1 and TR3 detection) or goat anti-mouse (for all others) (BioRad 11 Laboratories Inc., Hercules, Calif.) in a dilution of 1:5000 in TBS were used.
Proteins were visualized by enhanced chemiluminescence detection (Lumi-Light^PLUS; Roche Diagnostics GmbH, Mannheim, Germany). Quantitative analysis was performed by the Lumi-Imager (Boehringer Mannheim, Mannheim, Germany). alpha-Tubulin staining served as a control for loading.

human SMCs [3] = test: DNA synthesis assay ([3H]thymidine incorporation) in FBS-stimulated cultured SMCs; type: cell-based
Method: as §1
SMCs were seeded in 24-well plates at 1−4×10^4 cells per well and reached 60% to 70% confluency after 24 hours. SMCs were made quiescent by incubation for 24 hours in FBS-free medium. 6-MP was dissolved in dimethylsulfoxide and applied one hour before FBS stimulation. SMCs were stimulated for 24 hours with 10% (v/v) FBS and subsequently cells were labeled for 18 hours with 0.25 μCi/well [methyl-3H]thymidine (Amersham Biosciences, Buckinghamshire, UK). Incorporated radioactivity was precipitated for 30 min at 4° C. with 10% (w/v) trichloroacetic acid, washed twice with 5% (w/v) trichloroacetic acid, and dissolved in 0.5 N NaOH (0.5 mL per well). Incorporated [^3H]thymidine was measured by liquid-scintillation counting.
(§2) The following small interfering (si)RNA sequences were used: Nur77 siRNA, 5′-CAG UCC AGC CAU GCU CCU C dTdT-3′, as described previously^20, and control siRNA, 5′-CAG ACG AGC CUU GCU CGU C dTdT-3′ (Ambion Inc., Austin, Tex.). Five μg of siRNA was transfected into 0.5−1×10^6 SMCs, using Nucleofector reagent for SMCs (Amaxa) as per the manufacturer's recommendations. Total mRNA was isolated five days after transfection, using the absolutely mRNA miniprep kit (Stratagene, La Jolla, Calif.). Subsequent cDNA synthesis was performed using the iScript cDNA synthesis kit (Biorad, Hercules, Calif.). Real-time polymerase chain reaction (PCR) was performed using SYBR green mix (Biorad) in the MyIQ System (Biorad). Primers for Nur77 were as follows: (forward) 5′-[…]-3′ and (reverse) 5′-[…]-3′. As a control for equal amount of first strand cDNA in different samples we corrected for Ribosomal Phosphoprotein (P0) mRNA levels, which were determined with the following primers (forward) 5′-[…]-3′ and (reverse) 5′-[…]-3′.
as §2, with “iscript” for “iScript”

## Sc1ncnc2nc[nH]c12 [6-MP, 6-mercaptopurine]
Human SMCs [1]
  apoptosis (apoptotic nuclei): 3%±2%
[2]
  SMα-actin and calponin as well as p27Kip1 protein expression: increases
Human SMCs [3]; 25 μM or 50 μM
  DNA synthesis in SMCs: reduced
Human SMCs [3]; SMCs transfected with Nur77 (TR3)-specific siRNA
  inhibition of DNA synthesis: 41%
Human SMCs [3]; SMCs transfected with control siRNA
  inhibition of DNA synthesis: 61%
Human SMCs [3]; increasing concentrations, 10% FBS
  DNA synthesis in SMCs: inhibits DNA synthesis
